According to patent publication US11452721B2, “Formulations of pimavanserin” (ACADIA Pharmaceuticals Inc., priority 2017, dated 2022):

What was measured:
[1] = FT4 Powder Rheology (FT4 Powder Rheometer, ASTM D7891-15); format: physicochemical; conditions: FT4 measurement
Text: In addition to the bulk density and Carr's Index obtained according to USP <616>, method 1, FT4 Powder Rheology was obtained for the API (pimavanserin tartrate) and for the compositions disclosed herein using a FT4 Powder Rheometer according to ASTM D7891-15; Standard Test Method for Shear Testing of Powders Using the Freeman Technology FT4 Powder Rheometer Shear Cell.
As discussed herein above the flowability of the composition has been improved compared to the API (pimavanserin tartrate), which for example can be supported by the Specific Energy (SE) obtained from the FT4 measurements. Specific Energy is a measure of the powder's flowability when unconfined, such as during low stress filling, or low shear blending. The average Specific Energy (SE) for the API is about 10.08+/−0.23 mJ/g.
The FT4 Powder Rheometer was also used as yet another means to compare the bulk density between the API, the granulated pimavanserin and the blended pimavanserin compositions disclosed herein and in the accompanying claims. The bulk density is a conditioned bulk density as obtained by the FT4 measurement, in accordance with ASTM D7891-15; Standard Test Method for Shear Testing of Powders Using the Freeman Technology FT4 Powder Rheometer Shear Cell.
The blended pimavanserin composition used in the herein mention FT4 Powder Rheometry measurements comprised 34 mg pimavanserin, 59 mg microcrystalline cellulose and 1 mg magnesium stearate.

[2] = Laser light scattering particle size distribution (Malvern Mastersizer 2000); format: physicochemical; conditions: before vs after granulation, FIG. 4/5
Text: The small quantity of water, its application using appropriate water atomization and/or water application rate are important reasons for the improved properties of pimavanserin. […] The actual amount of water to be sprayed at the granulation of pimavanserin may vary from batch to batch (depending on surrounding factors such as humidity, temperature, exact properties of the API batch, etc) but is still consider to be a small amount, e.g. 3-10% w/w based on the dry ingredients. The amount of water and the granulation process disclosed herein is controlled by controlling the impeller energy to achieve the targeted impeller speed. The appropriate impeller speed ensures sufficient mixing and controls the growth of granules. The specific small amount of water needed for each batch is controlled by the power consumption (amperage) of the granulator, i.e., if the amperage is […], additional amounts of water could be sprayed to the granulate in order to obtain pimavanserin having the properties desired in order to pharmaceutically manufacture capsules comprising 5-34 mg pimavanserin. […] The properties are achieved via a manufacturing process that includes granulation, using a suitable granulator, e.g. a high shear granulator, simultaneously spraying the adequate amount of water while mixing, followed by screening, and blending appropriate quantities of excipients. […]

[3] = Bulk density according to USP <616> method 1; format: physicochemical
Experimental: (§1) Carr's Index compares the difference between the bulk density and tapped density of a substance to determine its compressibility. The bulk density and the Carr's Index may be determined in accordance with USP<616> (method for performing Bulk and Tapped Densities, method 1) and USP<1174> (definition of powder flow) respectively.
(§2) Table 1 visualizes that filling of a capsule, in particular a capsule of size 3 or 4 (capsule volumes of 0.30 and 0.21 ml respectively, approximately 120 mg and 85 mg respectively at a bulk density of […]). As evident from Table 1, native pimavanserin (API) would be challenging for a size 3 capsule and not possible for a capsule of size 4 without improving the bulk density (as comparison 85 mg of pimavanserin granulation would require about 0.17 ml compared to 0.29 ml for the native API) and flowability (Carr index is frequently used in pharmaceutical manufacturing as an indication of the flowability of a powder, e.g. 2016 U.S. Pharmacopoeias-National Formulary [USP 35 NF 30]).
The bulk density of the blended composition is >0.4 g/ml, such as 0.4-0.6 g/ml, such as about 0.5 g/ml determined according to USP <616>, method 1. […]
The bulk density of pimavanserin granulation is >0.4 g/ml, such as 0.4-0.6 g/ml, such as about 0.5 g/ml, determined according to USP <616>, method 1. […]

[4] = Carr's Index (Carr's Compressibility Index), USP <616>/<1174>; format: physicochemical
Experimental: as §1, §2

[5] = system: DOI ((±)-2,5-dimethoxy-4-iodoamphetamine, a serotonin agonist) induced head twitches; conditions: rat; oral doses of 3 and 10 mg/kg; cited from earlier work
[6] = system: hyperactivity induced by the N-methyl-D-aspartate antagonist MK-801; conditions: mice; oral doses of 3 and 10 mg/kg; cited from earlier work

average Flow Rate Index (FRI) [1]	average Specific Energy (SE) [1]	average conditioned bulk density (CBD) ([1]; ASTM D7891-15) [g/mL]	particle size distribution D90 [2]	volume required by 85 mg ([3]; 85 mg of material, from bulk density) [mL]	Bulk density according to USP <616> ([3]; USP <616> method 1) [g/mL]	Carr's Index [4]	Molecule	activity in DOI induced head twitches [5]	attenuation of MK-801 induced hyperactivity [6]
1.90±0.01	about 10.08+/−0.23 mJ/g	0.336 ± 0.006	about 30 μm	0.29	0.294	36	pimavanserin tartrate [Native API]		
							CC(C)COc1ccc(CNC(=O)N(Cc2ccc(F)cc2)C2CCN(C)CC2)cc1 [Pimavanserin, N-(1-methylpiperidin-4-yl)-N-(4-fluorophenylmethyl)-N′-(4-(2-methylpropyloxy)phenylmethyl)carbamide]	effective	effective
